{"source": "patent US20180119123A1", "about": "“CRISPR/CAS-RELATED METHODS AND COMPOSITIONS FOR TREATING HIV INFECTION AND AIDS” (EDITAS MEDICINE, INC., priority 2015, published 2018)", "format_in_all_cases": "cell-based", "key": {"[1]": {"tested_on": "human CCR5 gene", "test": "T7E1 endonuclease assay of CCR5 PCR product after electroporation of S. aureus Cas9 plasmid and gRNA STITCHR product into K562 cells", "details": "750 ng S. aureus Cas9 plasmid DNA and 250 ng STITCHR product, 48 and 72 hours after electroporation", "text": "To identify gRNAs that efficiently target disruption of the human CCR5 gene, eleven gRNAs were selected from a larger list of gRNAs obtained from in silico prediction of gRNAs with S. aureus specific PAM sequences. In silico predicted gRNAs were tiered according to the strategy described in Section 8. An abbreviated list of eleven gRNAs with the lowest predictive off-target scores were selected for subsequent screening experiments, based on proximity to the naturally occurring de1ta32 mutation in CCR5 that has been associated with resistance to HIV. The target-specific complementary region of the selected list of eleven gRNAs are depicted in Table 15.\nA DNA plasmid encoding an S. aureus expression cassette (AF002) and a gRNA-specific STITCHR product, which is a DNA molecule consisting of a U6 promoter driving expression of the chimeric gRNA (i.e., a target-specific complementary sequence and the S. aureus gRNA scaffold), were electroporated into K562 cells using the Amaxa Nucleofector system and the program and protocol for K562 cells per the manufacturer's instructions. In brief, 750 ng S. aureus Cas9 plasmid DNA and 250 ng of STITCHR product were used for each gRNA. […]"}, "[2]": {"tested_on": "CCR5 locus", "test": "T7E1 analysis of gene disruption at CCR5 after Cas9 RNP electroporation of primary human T lymphocytes", "details": "human CD4+ T lymphocytes, WT Cas9 RNP, 5 μg each RNP per 200,000 cells, 72 hours after electroporation", "text": "While transplantation of autologous CD34^+ HSCs genetically modified to prevent expression of the wild-type CXCR4 or the CCR5 would provide a long-term cure to HIV infection, the myeloablative conditioning associated with HSC transplantation destroys host adaptive immunity […] until the T cell pool is reconstituted after HSC engraftment is acheived, which can take several months. This delay in adaptive immune reconstitution puts patients at risk for the development of opportunistic infections during the acute phase of early engraftment following HSC transplantation. […] In this Example, single and multiplex genome editing in human T lymphocytes after electroporation of Cas9 RNP targeting the CXCR4 locus, the CCR5 locus, or both simultaneously (multiplexing) was evaluated after electroporation of CXCR4 and CCR5 gRNAs that were in vitro transcribed and modified to have an ARCA cap at the 5′ end and a polyA (20A) tail at the 3′ end. […] Table 16 depicts experimental design associated with Example 9 to evaluate gene editing as determined by T7E1 endonuclease assay analysis of the CXCR4 and CCR5 loci after electroporation of primary human T lymphocytes with S. aureus and/or S. pyogenes RNPs. […]"}, "[3]": {"tested_on": "CCR5 locus", "test": "T7E1 endonuclease assay at CCR5 after Cas9 RNP electroporation of human cord blood CD34+ HSCs", "details": "human CB CD34+ HSCs, WT Cas9 RNP, 5 μg each per 200,000 cells, 72 hours after electroporation", "text": "Transplantation of autologous CD34^+ hematopoietic stem cells (HSCs, also known as hematopoietic stem/progenitor cells or HSPCs) that have been edited to disrupt expression of CXCR4 or CCR5 gene products would prevent entry of the HIV virus HSC progeny that are normally susceptible to HIV infection (e.g., macrophages and CD4 T lymphocytes). Multiplex genome editing with the Cas9 RNP complexed to modified gRNAs precisely alters more than one endogenous gene targets by creating indels at two different cut sites can lead to knock down of gene expression at multiple edited loci. In this Example, single target and multiplex genome editing was evaluated in human umbilical cord blood (CB) CD34^+ cells after electroporation of wild-type S. pyogenes Cas9, wild-type S. aureus Cas9 or D10A nickase. Briefly, Cas9 protein was complexed with modified sgRNAs targeting CXCR4 or CCR5. […] Seventy-two hours after electroporation of RNP with the Amaxa nucleofector system, CD34^+ HSCs were collected, gDNA isolated and CXCR4 and CCR5 PCR products analyzed by T7E1 endonuclease assay to evaluate targeted disruption of these HIV co-receptors (Table 19). Table 19 depicts experimental design associated with Example 10 to evaluate gene editing determined by T7E1 endonuclease assay analysis of the at CXCR4 and CCR5 loci after electroporation of primary human CD34^+ HSCs with S. aureus and/or S. pyogenes RNPs."}}}
{"substance": "CCR5_Sa3: S. aureus gRNA targeting CCR5; GUGGUGACAAGUGUGAUCAC (SEQ ID NO: 488) (RNA, backbone not given here; in vitro transcribed gRNA with scaffold, 5' ARCA cap, 3' polyA (20A) tail)", "values": [{"measurement": "indels in CCR5", "setting": "[1]", "result": "about 39%"}, {"measurement": "% editing at CCR5", "setting": "[2]", "result": 1.98, "unit": "%"}, {"measurement": "% editing at CCR5", "setting": "[3]", "result": 0.44, "unit": "%"}]}
